# Key:
# [1] = biological target: T1, pyruvate dehydrogenase phosphatase isolated from bovine heart (Bos taurus, UniProt P35816); assay: Stimulation of pyruvate dehydrogenase (PDH) phosphatase; type: biochemical
# T1 construct: pyruvate dehydrogenase phosphatase isolated from bovine heart; from tissue; host or cells: bovine heart
# T1 sequence (P35816 72-538): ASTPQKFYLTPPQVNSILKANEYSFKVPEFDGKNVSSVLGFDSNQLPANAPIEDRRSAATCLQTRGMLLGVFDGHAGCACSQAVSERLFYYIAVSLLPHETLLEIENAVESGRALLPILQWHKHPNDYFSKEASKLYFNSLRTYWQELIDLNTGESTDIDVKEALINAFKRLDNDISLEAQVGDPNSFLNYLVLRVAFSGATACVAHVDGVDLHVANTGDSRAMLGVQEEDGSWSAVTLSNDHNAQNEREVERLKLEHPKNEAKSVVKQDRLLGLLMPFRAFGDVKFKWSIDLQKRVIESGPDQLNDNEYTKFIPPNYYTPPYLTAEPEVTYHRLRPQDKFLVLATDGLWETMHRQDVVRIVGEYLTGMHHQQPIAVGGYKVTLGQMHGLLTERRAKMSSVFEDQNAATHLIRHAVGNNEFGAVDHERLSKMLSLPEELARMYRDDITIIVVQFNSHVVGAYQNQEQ
# T1 sequence (O46504 32-878 partner limits assumed): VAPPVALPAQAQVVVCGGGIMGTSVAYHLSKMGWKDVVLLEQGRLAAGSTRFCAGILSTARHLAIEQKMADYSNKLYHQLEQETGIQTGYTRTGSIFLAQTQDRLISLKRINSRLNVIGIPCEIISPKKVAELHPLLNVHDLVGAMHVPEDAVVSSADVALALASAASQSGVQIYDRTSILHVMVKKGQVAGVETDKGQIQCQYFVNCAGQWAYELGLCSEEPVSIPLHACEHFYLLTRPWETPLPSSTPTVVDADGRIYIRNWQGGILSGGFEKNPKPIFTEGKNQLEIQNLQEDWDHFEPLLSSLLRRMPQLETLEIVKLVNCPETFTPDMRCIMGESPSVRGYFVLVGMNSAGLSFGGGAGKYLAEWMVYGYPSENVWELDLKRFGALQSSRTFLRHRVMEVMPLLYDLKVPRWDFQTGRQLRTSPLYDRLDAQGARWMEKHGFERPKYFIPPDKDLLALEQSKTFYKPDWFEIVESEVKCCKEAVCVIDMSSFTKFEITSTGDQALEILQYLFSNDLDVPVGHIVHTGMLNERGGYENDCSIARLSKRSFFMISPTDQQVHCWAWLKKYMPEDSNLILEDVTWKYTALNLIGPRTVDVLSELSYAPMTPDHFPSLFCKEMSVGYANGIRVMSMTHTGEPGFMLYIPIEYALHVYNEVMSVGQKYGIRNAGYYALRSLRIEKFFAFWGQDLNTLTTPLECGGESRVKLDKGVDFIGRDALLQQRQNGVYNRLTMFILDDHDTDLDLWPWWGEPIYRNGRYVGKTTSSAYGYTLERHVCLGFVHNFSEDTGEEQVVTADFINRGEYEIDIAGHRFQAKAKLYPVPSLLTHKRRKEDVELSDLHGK
# Method: Pyruvate dehydrogenase complex (PDC) and the PDH phosphatase were prepared and stored at −80° C. until use. The assay for both PDH phosphatases, in the presence of absence of insulin mediator, was based upon the initial rate of activation of inactivated, phosphorylated PDH complex. […] A two stage assay was used to quantitate the phosphatase activity. A sample of inactivated PDC (50 μL) was preincubated at 30° C. with 1 mg/mL fat-free BSA, 10 mM MgCl2, 0.1 mM CaCl2 and […] DTT in 20 mM potassium phosphate buffer at pH 7.0 (total volume 250 μL) for three minutes. At this time, 10 μL of the PDH phosphatase and 10 μL of IPG were added and the incubation continued for a further 2 min. At the end of this time, 200 μL of the mix was removed and added to 100 μL of 300 mM NaF. The activated PDH was determined at the second stage photometrically by measuring the rate of production of NADH. One hundred microliters of the stopped reaction were added to 1 mL of reaction mixture containing 50 mM potassium phosphate buffer at pH 8.0, 2.5 mM β-NAD^+, 0.2 mM TPP, 0.13 mM coenzyme A, 0.32 mM DTT and 2 mM sodium pyruvate. The production of NADH was followed at 340 nm for 5 min.
# Three samples of liver P-type used. All were suspended on day of use at the rate of 1 g liver in […] water. All three preparations were tested before and after treatment with dithizone, while the one preparation was also treated with Mn after dithizone to attempt to reactivate it. The reactivation procedure was to preincubate a de-metallized sample with 2.7 mM Mn for 15 min before it was added to the inactivated PDH mix.
# The P-1 sample used here was the same as that used in previous experiment although a second tube of that composite sample. The dithizone treated sample was the same as that used previously. For reactivation, the de-medalist sample was pre-incubated for 15 mins with either 2.7 mM Mn, 1.8 mM Zn or 2.7 mM Mn-1.8 mM Zn. All samples tested on normal assay system using 10 μl P′ase and 5 ul of sample.
# Glycogen synthase = Glycogen synthase activity in rat fat cells; type: cell-based; details: 5 min incubation, 20 μl insulin (25 mU/ml) or 10 μl placenta IPG
# Method: Glycogen synthase activity was assayed as follows. Fat cells were prepared from epididymal adipose tissue using 140-150 g rats (Wistar strain). Fat pads from 3 rats were cut into small pieces and incubated in 8 ml of Krebs ringer bicarbonate containing 2% albumin plus 24 mg of collagenase for 25 minutes at 37° C. The isolated cells were filtered and washed in 3×10 ml Krebs ringer phosphate medium containing 30 mg/ml of bovine serum albumin (Fraction v, Sigma), the pH was adjusted to 7.4 with NaOH after addition of albumin. The washed cells were also resuspended in Krebs ringer phosphate (10 ml of medium/g of original tissue).
# For measurement of enzyme activities, three incubation vessels were set up, each contained 5 ml cells. There were no additions to the first, the second contained 20 μl insulin (25 mU/ml) and the third 10 μl placenta IPG. […]
# The reaction was stopped with 0.5 ml cold buffer (100 mM KF/10 mM EDTA/1 mM benzamidine (4), pH 7.0) and the cells homogenized and transferred to Eppendorf tubes. These were spun at 10,000 g for 15 min and the middle layer collected for enzyme assay all tubes were set up in duplicate and measured in the presence of 0.01 mM glucose 6-phosphate except the maximally activated glycogen synthase tube which contained 7.2 mM glucose 6-phosphate. […] Glycogen synthase activity is expressed as a percentage of the total synthase activity (G6P maximum).
# rat liver = assay: IPG release in rat liver following infusion with insulin; type: in vivo; details: 2 minutes after insulin infusion
# [2] = reactivation experiment, 10 μl P'ase and 5 ul of sample, 2.7 mM Mn, 1.8 mM Zn, Treated = dithizone
Compound,effect on P'ase activity ([1]; 10^−4M Mn (assay no: 3)),PDH phosphatase (activity) ([1]; +Mg2+ + Ca2+),"PDH phosphatase (activity) ([1]; +Mg2+, no Ca2+)","Units/g ([1]; dithizone experiment, Vol used 5 μl, Treated = dithizone, Mn 2.7 mM) [Units/g]","% stimulation ([1]; dithizone experiment, Vol used 5 μl, liver P-type 1 g liver in 10 μl water, Treated = dithizone, Mn 2.7 mM) [%]","% stimulation [1, 2]",Stimulation as % of G6P Maximum (Glycogen synthase) [%],increase in PDH phosphatase stimulating activity of rat liver (rat liver)
"[Mn+2] [Mn, manganese]",no effect,Δ 0.680 OD/min (2),Δ 0.000 OD/min (6),0,−11,+12%,–,–
[Zn+2] [Zn],–,–,–,–,–,+122%,–,–
insulin,–,–,–,–,–,–,6.54,two-fold increase in activity

# Source: patent US20040022782A1, “Cyclitol containing carbohydrates from human tissue which regulate glycogen metabolism” (Rodaris Pharmaceuticals Limited, priority 1996, published 2004)
